Experimental data published in patent publication US9580444B2, “Polycyclic pyrazolinone derivative and herbicide comprising same as effective component thereof” (priority 2013, dated 2017).

Assays:
Assay type in all cases: in vivo
Conditions in all cases: 500 g a.i/ha, foliage treatment after emergence, about 14 days after treatment, score 0-5
[1] = system: Abutilon theophrasti (velvetleaf); test: Test Example-4: herbicidal effect by a foliage treatment after weeds are generated under upland field conditions
Text: (§1) Using the formulation prepared according to the methods described above, the herbicidal effect of the bicyclic pyrazolinone derivative of the invention according to the methods shown in Test Examples below was examined. The herbicidal effect with respect to the test weeds or the phytotoxicity with respect to the test crops was examined according to the following criteria, and evaluated in six stage scores of 0 to 5. A vat having an area of 65 cm^2 and a depth of 2 cm was filled with upland soil, then, seeds of Amaranthus viridis (green amaranthus), Abutilon theophrasti (velvetleaf), Chenopodium album (common lambsquarters), […]. While watering was suitably performed on there, the seeds were grown for 14 days. A wettable powder or an emulsifiable concentrate of the compound of the present invention prepared according to Formulation Example was diluted, and a spray treatment was uniformly performed on the foliage portion of the plant so as to be a predetermined dosage in the amount of water of 4000 L per hectare. The herbicidal effect with respect to the test weeds and the phytotoxicity with respect to corn about 14 days after the treatment were evaluated according to the evaluation criteria in six stages of 0 to 5 described above.

[2] = system: Chenopodium album (common lambsquarters); test: as above
Text: as §1

[3] = system: Amaranthus viridis (green amaranthus); test: as above
Text: as §1

corn = test: Test Example-4: phytotoxicity by a foliage treatment after weeds are generated under upland field conditions
Text: as §1

Row | SMILES | Herbicidal effect Abutilon theophrast [1] | Herbicidal effect Chenopodium album [2] | Herbicidal effect Amaranthus viridis [3] | Phytotoxicity Corn (corn)
1 | COC(=O)C=C(COc1cc(-c2c(Cl)n3n(c2=O)CCCC3)c(F)cc1Cl)OC (mixture of isomers) [Example 2-1] | 5 (Herbicidal effect/phytotoxicity was 90% or greater) | 5 (Herbicidal effect/phytotoxicity was 90% or greater) | 5 (Herbicidal effect/phytotoxicity was 90% or greater) | 1 (Herbicidal effect/phytotoxicity was 10% to 30%)
2 | C=CCOC(=O)C=C(COc1cc(-c2c(Cl)n3n(c2=O)CCCC3)c(F)cc1Cl)OC (mixture of isomers) [Example 2-8] | 5 (Herbicidal effect/phytotoxicity was 90% or greater) | 5 (Herbicidal effect/phytotoxicity was 90% or greater) | 5 (Herbicidal effect/phytotoxicity was 90% or greater) | 2 (Herbicidal effect/phytotoxicity was 30% to 50%)
3 | CCOC(=O)C=C(COc1cc(-c2c(Cl)n3n(c2=O)CCCC3)c(F)cc1Cl)OC (mixture of isomers) [Example 2-14] | 5 (Herbicidal effect/phytotoxicity was 90% or greater) | 5 (Herbicidal effect/phytotoxicity was 90% or greater) | 5 (Herbicidal effect/phytotoxicity was 90% or greater) | 0 (Herbicidal effect/phytotoxicity was 0% to 10%)
4 | CCCOC(=CC(=O)OCC)COc1cc(-c2c(Cl)n3n(c2=O)CCCC3)c(F)cc1Cl (mixture of isomers) [Example 2-20] | 5 (Herbicidal effect/phytotoxicity was 90% or greater) | 5 (Herbicidal effect/phytotoxicity was 90% or greater) | 5 (Herbicidal effect/phytotoxicity was 90% or greater) | 0 (Herbicidal effect/phytotoxicity was 0% to 10%)
5 | CCCOC(=O)C=C(COc1cc(-c2c(Cl)n3n(c2=O)CCCC3)c(F)cc1Cl)OCC (mixture of isomers) [Example 2-23] | 5 (Herbicidal effect/phytotoxicity was 90% or greater) | 5 (Herbicidal effect/phytotoxicity was 90% or greater) | 5 (Herbicidal effect/phytotoxicity was 90% or greater) | 0 (Herbicidal effect/phytotoxicity was 0% to 10%)
6 | COc1cc(-c2c(Cl)n3n(c2=O)CCCC3)ccc1Cl [Example 1-44] | 5 (Herbicidal effect/phytotoxicity was 90% or greater) | 5 (Herbicidal effect/phytotoxicity was 90% or greater) | 5 (Herbicidal effect/phytotoxicity was 90% or greater) | 0 (Herbicidal effect/phytotoxicity was 0% to 10%)
7 | CC(C)Oc1cc(-c2c(Cl)n3n(c2=O)CCCC3)ccc1Cl [Example 1-49] | 5 (Herbicidal effect/phytotoxicity was 90% or greater) | 5 (Herbicidal effect/phytotoxicity was 90% or greater) | 5 (Herbicidal effect/phytotoxicity was 90% or greater) | 0 (Herbicidal effect/phytotoxicity was 0% to 10%)
8 | C=CCOc1cc(-c2c(Cl)n3n(c2=O)CCCC3)ccc1Cl [Example 1-59] | 5 (Herbicidal effect/phytotoxicity was 90% or greater) | 5 (Herbicidal effect/phytotoxicity was 90% or greater) | 5 (Herbicidal effect/phytotoxicity was 90% or greater) | 0 (Herbicidal effect/phytotoxicity was 0% to 10%)
9 | C#CCOc1cc(-c2c(Cl)n3n(c2=O)CCOCC3)ccc1Cl [Example 1-66] | 5 (Herbicidal effect/phytotoxicity was 90% or greater) | 5 (Herbicidal effect/phytotoxicity was 90% or greater) | 5 (Herbicidal effect/phytotoxicity was 90% or greater) | 1 (Herbicidal effect/phytotoxicity was 10% to 30%)
10 | C#CC(C)Oc1cc(-c2c(Cl)n3n(c2=O)CCCC3)ccc1Cl (centres unmarked) [Example 1-67] | 5 (Herbicidal effect/phytotoxicity was 90% or greater) | 5 (Herbicidal effect/phytotoxicity was 90% or greater) | 5 (Herbicidal effect/phytotoxicity was 90% or greater) | 0 (Herbicidal effect/phytotoxicity was 0% to 10%)
11 | COc1cc(-c2c(Cl)n3n(c2=O)CCCCC3)c(F)cc1Cl [Example 1-141] | 5 (Herbicidal effect/phytotoxicity was 90% or greater) | 5 (Herbicidal effect/phytotoxicity was 90% or greater) | 5 (Herbicidal effect/phytotoxicity was 90% or greater) | 0 (Herbicidal effect/phytotoxicity was 0% to 10%)
12 | CCOC(=O)COc1cc(-c2c(Cl)n3n(c2=O)CCCC3)c(F)cc1Cl [Example 1-163] | 5 (Herbicidal effect/phytotoxicity was 90% or greater) | 5 (Herbicidal effect/phytotoxicity was 90% or greater) | 5 (Herbicidal effect/phytotoxicity was 90% or greater) | 0 (Herbicidal effect/phytotoxicity was 0% to 10%)
13 | O=c1c(-c2cc(OC3CCCC3)c(Cl)cc2F)c(Cl)n2n1CCCCC2 [Example 1-182] | 5 (Herbicidal effect/phytotoxicity was 90% or greater) | 5 (Herbicidal effect/phytotoxicity was 90% or greater) | 5 (Herbicidal effect/phytotoxicity was 90% or greater) | 1 (Herbicidal effect/phytotoxicity was 10% to 30%)
14 | C=C(COc1cc(-c2c(Cl)n3n(c2=O)CCCC3)c(F)cc1Cl)c1cccc(Cl)c1 [Example 1-228] | 5 (Herbicidal effect/phytotoxicity was 90% or greater) | 5 (Herbicidal effect/phytotoxicity was 90% or greater) | 5 (Herbicidal effect/phytotoxicity was 90% or greater) | 1 (Herbicidal effect/phytotoxicity was 10% to 30%)
15 | C=C(COc1cc(-c2c(Cl)n3n(c2=O)CCCC3)c(F)cc1Cl)c1ccc(OCC)c(F)c1F [Example 1-230] | 5 (Herbicidal effect/phytotoxicity was 90% or greater) | 5 (Herbicidal effect/phytotoxicity was 90% or greater) | 5 (Herbicidal effect/phytotoxicity was 90% or greater) | 0 (Herbicidal effect/phytotoxicity was 0% to 10%)
16 | O=c1c(-c2cc([N+](=O)[O-])c(Cl)cc2F)c(C(F)(F)F)n2n1CCCC2 [Example 1-336] | 5 (Herbicidal effect/phytotoxicity was 90% or greater) | 5 (Herbicidal effect/phytotoxicity was 90% or greater) | 5 (Herbicidal effect/phytotoxicity was 90% or greater) | 0 (Herbicidal effect/phytotoxicity was 0% to 10%)
17 | CCOC(=CC(=O)OCC(C)C)COc1cc(-c2c(Cl)n3n(c2=O)CCCC3)c(F)cc1Cl [Example 2-27] | 5 (Herbicidal effect/phytotoxicity was 90% or greater) | 5 (Herbicidal effect/phytotoxicity was 90% or greater) | 5 (Herbicidal effect/phytotoxicity was 90% or greater) | 0 (Herbicidal effect/phytotoxicity was 0% to 10%)
